# System: formalin-induced behavioral response
# Assay: formalin-induced behavioral response model (flinching/shaking, licking/biting; phase I and phase II)
# [1] = dose 3 mg/kg subcutaneously two hours prior to formalin administration
SMILES,% Inhibition of Phase II [1],also measured
CC(C)Oc1ccc2c(c1)CCc1c-2c2c(c3c4ccccc4n(CCO)c13)CNC2=O [IX],37 ± 3%,
CC(C)Oc1ccc2c(c1)CCc1c-2c2c(c3c1[nH]c1ccc(F)cc13)CNC2=O [VIII],,% Inhibition of Phase II (dose 1 mg/kg subcutaneously two hours prior to formalin administration): 29 ± 4%
C[C@]1(O)C[C@H]2O[C@]1(C)n1c3ccccc3c3c4c(c5c6ccccc6n2c5c31)C(=O)NC4 [XIII],29 ± 5%,
O=C1NCc2c1c1c3c4c2c2ccccc2n4C2CC[C@H](O2)C3c2ccccc2-1 (stereo partly drawn) [XIV],34 ± 3%,
COc1ccc2c(c1)Cc1c-2c2c(c3c4ccccc4n(CCO)c13)CNC2=O [XVI],22 ± 6%,
CCOCc1ccc2c(c1)c1c3c(c4c(c1n2CCCO)Cc1ccccc1-4)C(=O)NC3 [XV],,% Inhibition of Phase II (dose 10 mg/kg subcutaneously two hours prior to formalin administration): 19 ± 3%

# Source: patent US7018999B2, “Methods for the treatment and prevention of pain” (Cephalon, Inc., priority 2001, dated 2006)
